The source made the active and inactive calls. No rule for the calls is given here.
Test system: CCRIS mutagenicity, Ames/micronucleus/aberration tests
Assay: CCRIS mutagenicity studies
[1] = Test System: AMES SALMONELLA TYPHIMURIUM, Strain/Indicator: TA100, Metabolic Activation: NONE, Method: PREINCUBATION
[2] = Test System: AMES SALMONELLA TYPHIMURIUM, Strain/Indicator: TA98, Metabolic Activation: NONE, Method: STANDARD PLATE
[3] = Test System: AMES SALMONELLA TYPHIMURIUM, Strain/Indicator: TA98, Metabolic Activation: RAT, LIVER, S-9, AROCLOR 1254, Method: STANDARD PLATE
[4] = Test System: AMES SALMONELLA TYPHIMURIUM, Strain/Indicator: TA100, Metabolic Activation: NONE, Method: STANDARD PLATE
[5] = Test System: AMES SALMONELLA TYPHIMURIUM, Strain/Indicator: TA100, Metabolic Activation: RAT, LIVER, S-9, AROCLOR 1254, Method: STANDARD PLATE
[6] = Test System: AMES SALMONELLA TYPHIMURIUM, Strain/Indicator: TA1535, Metabolic Activation: NONE, Method: STANDARD PLATE
[7] = Test System: AMES SALMONELLA TYPHIMURIUM, Strain/Indicator: TA1535, Metabolic Activation: RAT, LIVER, S-9, AROCLOR 1254, Method: STANDARD PLATE
[8] = Test System: AMES SALMONELLA TYPHIMURIUM, Strain/Indicator: TA1537, Metabolic Activation: NONE, Method: STANDARD PLATE
[9] = Test System: AMES SALMONELLA TYPHIMURIUM, Strain/Indicator: TA1537, Metabolic Activation: RAT, LIVER, S-9, AROCLOR 1254, Method: STANDARD PLATE
[10] = Test System: AMES SALMONELLA TYPHIMURIUM, Strain/Indicator: TA1538, Metabolic Activation: NONE, Method: STANDARD PLATE
[11] = Test System: AMES SALMONELLA TYPHIMURIUM, Strain/Indicator: TA1538, Metabolic Activation: RAT, LIVER, S-9, AROCLOR 1254, Method: STANDARD PLATE

In the case of `Oc1ccc(Nc2ccc3ccccc3c2)cc1`, the mutagenic call (Test System: AMES SALMONELLA TYPHIMURIUM, Strain/Indicator: TA97, Metabolic Activation: HAMSTER, LIVER, S-9, AROCLOR 1254 (10%), Method: PREINCUBATION) is reported as “inactive; negative”, the mutagenic call (Test System: AMES SALMONELLA TYPHIMURIUM, Strain/Indicator: TA97, Metabolic Activation: HAMSTER, LIVER, S-9, AROCLOR 1254 (30%), Method: PREINCUBATION) is reported as “inactive; negative” and the mutagenic call (Test System: AMES SALMONELLA TYPHIMURIUM, Strain/Indicator: TA97, Metabolic Activation: NONE, Method: PREINCUBATION) is reported as “inactive; negative”. The mutagenic call (Test System: AMES SALMONELLA TYPHIMURIUM, Strain/Indicator: TA97, Metabolic Activation: RAT, LIVER, S-9, AROCLOR 1254 (10%), Method: PREINCUBATION) was “inactive; negative”, the mutagenic call (Test System: AMES SALMONELLA TYPHIMURIUM, Strain/Indicator: TA97, Metabolic Activation: RAT, LIVER, S-9, AROCLOR 1254 (30%), Method: PREINCUBATION) was “inactive; negative” and the mutagenic call (Test System: AMES SALMONELLA TYPHIMURIUM, Strain/Indicator: TA98, Metabolic Activation: HAMSTER, LIVER, S-9, AROCLOR 1254 (10%), Method: PREINCUBATION) was “inactive; negative”. For the same molecule, the mutagenic call (Test System: AMES SALMONELLA TYPHIMURIUM, Strain/Indicator: TA98, Metabolic Activation: HAMSTER, LIVER, S-9, AROCLOR 1254 (30%), Method: PREINCUBATION) was “inactive; negative”, the mutagenic call (Test System: AMES SALMONELLA TYPHIMURIUM, Strain/Indicator: TA98, Metabolic Activation: NONE, Method: PREINCUBATION) was “inactive; negative” and the mutagenic call (Test System: AMES SALMONELLA TYPHIMURIUM, Strain/Indicator: TA98, Metabolic Activation: RAT, LIVER, S-9, AROCLOR 1254 (10%), Method: PREINCUBATION) was “inactive; negative”. The mutagenic call (Test System: AMES SALMONELLA TYPHIMURIUM, Strain/Indicator: TA98, Metabolic Activation: RAT, LIVER, S-9, AROCLOR 1254 (30%), Method: PREINCUBATION) was “inactive; negative”, the mutagenic call (Test System: AMES SALMONELLA TYPHIMURIUM, Strain/Indicator: TA100, Metabolic Activation: HAMSTER, LIVER, S-9, AROCLOR 1254 (10%), Method: PREINCUBATION) was “inactive; negative” and the mutagenic call (Test System: AMES SALMONELLA TYPHIMURIUM, Strain/Indicator: TA100, Metabolic Activation: HAMSTER, LIVER, S-9, AROCLOR 1254 (30%), Method: PREINCUBATION) was “inactive; negative”. For the same molecule, the mutagenic call [1] was “inactive; negative”, the mutagenic call (Test System: AMES SALMONELLA TYPHIMURIUM, Strain/Indicator: TA100, Metabolic Activation: RAT, LIVER, S-9, AROCLOR 1254 (10%), Method: PREINCUBATION) was “inactive; negative” and the mutagenic call (Test System: AMES SALMONELLA TYPHIMURIUM, Strain/Indicator: TA100, Metabolic Activation: RAT, LIVER, S-9, AROCLOR 1254 (30%), Method: PREINCUBATION) was “inactive; negative”. For the same molecule, the mutagenic call (Test System: AMES SALMONELLA TYPHIMURIUM, Strain/Indicator: TA1535, Metabolic Activation: HAMSTER, LIVER, S-9, AROCLOR 1254 (10%), Method: PREINCUBATION) was “inactive; negative”, the mutagenic call (Test System: AMES SALMONELLA TYPHIMURIUM, Strain/Indicator: TA1535, Metabolic Activation: HAMSTER, LIVER, S-9, AROCLOR 1254 (30%), Method: PREINCUBATION) was “inactive; negative” and the mutagenic call (Test System: AMES SALMONELLA TYPHIMURIUM, Strain/Indicator: TA1535, Metabolic Activation: NONE, Method: PREINCUBATION) was “inactive; negative”. The mutagenic call (Test System: AMES SALMONELLA TYPHIMURIUM, Strain/Indicator: TA1535, Metabolic Activation: RAT, LIVER, S-9, AROCLOR 1254 (10%), Method: PREINCUBATION) was “inactive; negative”, the mutagenic call (Test System: AMES SALMONELLA TYPHIMURIUM, Strain/Indicator: TA1535, Metabolic Activation: RAT, LIVER, S-9, AROCLOR 1254 (30%), Method: PREINCUBATION) was “inactive; negative” and the mutagenic call (Test System: AMES SALMONELLA TYPHIMURIUM, Strain/Indicator: TA1537, Metabolic Activation: HAMSTER, LIVER, S-9, AROCLOR 1254 (30%), Method: PREINCUBATION) was “inactive; negative”. The mutagenic call (Test System: AMES SALMONELLA TYPHIMURIUM, Strain/Indicator: TA1537, Metabolic Activation: NONE, Method: PREINCUBATION) was “inactive; negative” and the mutagenic call (Test System: AMES SALMONELLA TYPHIMURIUM, Strain/Indicator: TA1537, Metabolic Activation: RAT, LIVER, S-9, AROCLOR 1254 (30%), Method: PREINCUBATION) was “inactive; negative”.
For `CC(CN1CC(=O)NC(=O)C1)N1CC(=O)NC(=O)C1` (stereo not given), the mutagenic call [2] was “inactive; negative”, the mutagenic call [3] was “inactive; negative” and the mutagenic call [4] was “inactive; negative”. The mutagenic call [5] was “inactive; negative”, the mutagenic call [6] was “inactive; negative” and the mutagenic call [7] was “inactive; negative”. The mutagenic call [8] was “inactive; negative”, the mutagenic call [9] was “inactive; negative” and the mutagenic call [10] was “inactive; negative”. For the same molecule, the mutagenic call [11] was “inactive; negative”, the mutagenic call (Test System: CHINESE HAMSTER V-79, Strain/Indicator: V-79/8-AZAGUANINE, Metabolic Activation: NONE, Method: STANDARD PLATE) was “active; positive” and the mutagenic call (Test System: MOUSE LYMPHOMA, Strain/Indicator: L5178Y (TK+/TK-), Metabolic Activation: NONE, Method: SUSPENSION/PLATE) was “active; positive”.
`C[n+]1ccn(CCS(C)(=O)=O)c1/C=N/O` was tested, and the mutagenic call (Test System: AMES SALMONELLA TYPHIMURIUM, Strain/Indicator: TA97, Metabolic Activation: NONE, Method: STANDARD PLATE) was “inactive; negative”, the mutagenic call (Test System: AMES SALMONELLA TYPHIMURIUM, Strain/Indicator: TA97, Metabolic Activation: RAT, LIVER, S-9, Method: STANDARD PLATE) was “inactive; negative” and the mutagenic call [4] was “inactive; negative”. The mutagenic call (Test System: AMES SALMONELLA TYPHIMURIUM, Strain/Indicator: TA100, Metabolic Activation: RAT, LIVER, S-9, Method: STANDARD PLATE) was “inactive; negative”, the mutagenic call (Test System: AMES SALMONELLA TYPHIMURIUM, Strain/Indicator: TA104, Metabolic Activation: NONE, Method: STANDARD PLATE) was “inactive; negative” and the mutagenic call (Test System: AMES SALMONELLA TYPHIMURIUM, Strain/Indicator: TA104, Metabolic Activation: RAT, LIVER, S-9, Method: STANDARD PLATE) was “inactive; negative”. The mutagenic call [8] was “inactive; negative”, the mutagenic call (Test System: AMES SALMONELLA TYPHIMURIUM, Strain/Indicator: TA1537, Metabolic Activation: RAT, LIVER, S-9, Method: STANDARD PLATE) was “inactive; negative” and the mutagenic call [10] was “inactive; negative”. The mutagenic call (Test System: AMES SALMONELLA TYPHIMURIUM, Strain/Indicator: TA1538, Metabolic Activation: RAT, LIVER, S-9, Method: STANDARD PLATE) was “inactive; negative”.
For `O=[N+]([O-])c1ccc2ccc3cc4c(c5ccc1c2c35)C=CCC4`, the mutagenic call (Test System: AMES SALMONELLA TYPHIMURIUM, Strain/Indicator: TA98(1,8-DNP6), Metabolic Activation: NONE, Method: STANDARD PLATE) was “active; positive”, the mutagenic call (Test System: AMES SALMONELLA TYPHIMURIUM, Strain/Indicator: TA98(1,8-DNP6), Metabolic Activation: RAT, LIVER, S-9, AROCLOR 1254, Method: STANDARD PLATE) was “active; positive” and the mutagenic call (Test System: AMES SALMONELLA TYPHIMURIUM, Strain/Indicator: TA98(NR), Metabolic Activation: NONE, Method: STANDARD PLATE) was “active; positive”. The mutagenic call (Test System: AMES SALMONELLA TYPHIMURIUM, Strain/Indicator: TA98(NR), Metabolic Activation: RAT, LIVER, S-9, AROCLOR 1254, Method: STANDARD PLATE) was “active; positive”, the mutagenic call [2] was “active; positive” and the mutagenic call [3] was “active; positive”. The mutagenic call [4] was “inactive; negative” and the mutagenic call [5] was “active; positive”.
In the case of `Nc1cc2c(O)c(N=Nc3ccc(N=Nc4ccc(S(=O)(=O)O)cc4)c4ccc(S(=O)O)cc34)c(S(=O)(=O)O)cc2cc1S(=O)(=O)O`, the mutagenic call [2] is reported as “inactive; negative”, the mutagenic call [3] is reported as “inactive; negative” and the mutagenic call [4] is reported as “inactive; negative”. The mutagenic call [5] was “inactive; negative”, the mutagenic call [6] was “inactive; negative” and the mutagenic call [7] was “inactive; negative”. The mutagenic call [8] was “inactive; negative”, the mutagenic call [9] was “inactive; negative” and the mutagenic call [10] was “inactive; negative”. The mutagenic call [11] was “inactive; negative”.
`CC12OOC1(COC(=O)Nc1ccc(Cl)cc1)Oc1ccccc12` (stereo not given) was tested, and the mutagenic call [1] was “active; positive”.
For `C=CCN(CC=C)C1c2ccccc2-c2ccccc2C1N1C2c3ccccc3-c3ccccc3C21` (stereo not given), the mutagenic call [4] was “inactive; negative”.

Source: PubChem BioAssay AID1259407 (Chemical Carcinogenesis Research Information System (CCRIS), 2018)
